Experimental findings from patent US8329721B2, “Hydroxy and alkoxy substituted 1H-imidazonaphthyridines and methods” (3M Innovative Properties Company, priority 2006, dated 2012) are described below.

As for `CCOc1nc2c(N)nc3cccnc3c2n1[C@@H](C)c1ccccc1` [Example 5, 2-Ethoxy-1-[(1S)-1-phenylethyl]-1H-imidazo[4,5-c][1,5]naphthyridin-4-amine], the melting point – broadly, the temperature of the solid-liquid transition – is 187 to 190 °C.
Turning to `Nc1nc2cccnc2c2c1nc(O)n2CC1CCOCC1` [Example 4, 4-Amino-1-(tetrahydro-2H-pyran-4-ylmethyl)-1H-imidazo[4,5-c][1,5]naphthyridin-2-ol], the melting point was 250 to 260 °C.
As to `Nc1nc2cccnc2c2c1nc(O)n2Cc1ccccc1` [Example 2, 4-Amino-1-benzyl-1H-imidazo[4,5-c][1,5]naphthyridin-2-ol], the melting point was > 250 °C.
Molecule `C[C@@H](c1ccccc1)n1c(O)nc2c(N)nc3cccnc3c21` [Example 6, 4-amino-1-[(1S)-1-phenylethyl]-1H-imidazo[4,5-c][1,5]naphthyridin-2-ol] showed a melting point of 241 to 243 °C.
Next, `CCOc1nc2c(N)nc3cccnc3c2n1CC1CCOCC1` [Example 3, 2-Ethoxy-1-(tetrahydro-2H-pyran-4-ylmethyl)-1H-imidazo[4,5-c][1,5]naphthyridin-4-amine]: 197 to 200 °C.
